For two compounds, MIC results are on record in patent US20130165368A1, “ANTIMICROBIAL COMPOUNDS” (priority 2010, published 2013).

Common to all, as to assay type: cell-based
Assay [1] has as its system Escherichia coli. Put plainly: MIC agar dilution, micro-organism 1 (10418). As to conditions: Escherichia coli 10418, read-out: MIC. As for the experimental part: (§1) Throughout the period of testing the microbial strains were subcultured and incubated for 18-20 hours at 37° C. on a weekly basis. Horse blood agar plates were used to sustain the micro-organisms both prior to and throughout testing. The alkoxylated alkanols listed in Table II below were obtained (these are obtainable from Sigma-Aldrich Company Ltd, Dorset, England), each having a GC purity of at least 97%.
(§2) Molar equivalent concentrations were used to allow comparison between compounds of differing molecular mass. Due to weighing difficulties, any compound in solid form was melted in a water bath prior to dilution. To make ten-times strength concentrations, which takes into account agar dilution, 0.0352 mmol of each compound was weighed into plastic universal bottles and 4 mL of sterile distilled water (SDW) was added. To produce a homogenous emulsion the universals were vortexed; once achieved the emulsions were serial diluted by adding 2 mL to 2 mL of SDW.
(§3) Myristyl alcohol and lauryl alcohol were re-weighed and dissolved in 25 μL of the polar solvent 1-methyl-2-pyrrolidone (M6762; Sigma-Aldrich) in sterile glass universals due to an inability to achieve an even suspension. To maintain an even emulsion in the presence of SDW 37.5 μL of the non-ionic detergent Tween 20 (P1379, Sigma-Aldrich) was also added. 3.9375 mL of SDW was added to these, to create a 4 mL volume; they were vortexed and diluted as before.
(§4) For every 100 mL of Isosensitest agar (IST) (CM0471; Oxoid, Basingstoke, England), 3.1 g of the IST powder was added to 100 mL SDW (as per manufacturer's instructions) and sterilised for 15 minutes at 121° C. Once sterilised, the molten agar was cooled to 50° C. in a water-bath. Subsequently 4.8 g of CCEY powder (BC2160; Bioconnections, Wetherby, England), also known as Brazier's medium, was added to 100 mL SDW for every 100 mL of agar needed. This was then sterilised for 15 minutes at 121° C. Once sterilised the molten agar was cooled to 50° C. in a water-bath and 4 mL of egg-yolk emulsion (S2073; TCS Biosciences Ltd, Buckingham, United Kingdom) and 1 mL of lysed defibrinated horse blood (HB035; TCS Biosciences Ltd, Buckingham, United Kingdom) were also added for every 100 mL needed. Horse blood lysis is achieved by dilution to half concentration with SDW; when fully lysed the mixture will turn dark red in colour.
(§5) 18 mL agar was added to each universal and then poured into sterile Petri dishes. This step creates a 1/10 dilution resulting in agar plates of the required strength. Control plates for each set of strains were created by adding 18 mL of agar to 2 mL of SDW.
(§6) Suspensions of each bacterial species were prepared with a density equal to that of a 0.5 McFarland standard using a densitometer. All suspensions were made using sterile distilled water and fresh 18-20 hour cultures. As a 0.5 McFarland standard contains 1.5×10^8 CFU/mL and the multipoint inoculators applies 1 μL spots of liquid, each bacterial suspension was diluted 1/15 (20 μL suspension to 280 μL sterile distilled water).
(§7) Bacterial suspensions were prepared from fresh 18-24 hour cultures as previously described. 1 μL of each strain was inoculated onto all 100 agar plates containing a different chemical concentration and the 2 control plates. This was done using a multipoint inoculator which inoculates 20 strains per plate. All plates were incubated for 22 hours at 37° C. in aerobic conditions.
(§8) Each plate was examined for bacterial growth after 22 and 48 hours, with each being incubated in between examinations. A positive result was recorded as growth of ≧10 colonies. A negative result was recorded as growth of <10 colonies as this is equivalent to 99.9% inhibition. The lowest concentration of chemical that inhibited growth was recorded as the MIC. The results are recorded in Table IV below, where the numbers are quoted in mmol/L. […]
For orientation: In agar dilution the substance is mixed into plates at graded concentrations.

In assay [2] the test system is Providencia rettgeri. Nature of the assay: MIC agar dilution, micro-organism 3 (7475). As to conditions: Providencia rettgeri 7475, read-out: MIC. As to the method: as §1, §2, §3, §4, §5, §6, §7, §8
For assay [3], the system named is Steptococcus pyogenes. Nature of the assay: MIC agar dilution, micro-organism 11 (8306). As to conditions: Steptococcus pyogenes 8306, read-out: MIC. As to the method: as §1, §2, §3, §4, §5, §6, §7, §8
Assay [4] has as its system Staphylococcus aureus (MRSA). Put plainly: MIC agar dilution, micro-organism 12 (11939). As to conditions: Staphylococcus aureus, MRSA, Staphylococcus aureus (MRSA) 11939, read-out: MIC. As to the method: as §1, §2, §3, §4, §5, §6, §7, §8
In assay [5] the test system is Staphylococcus aureus. Put plainly: MIC agar dilution, micro-organism 13 (6571). As to conditions: Staphylococcus aureus, Staphylococcus aureus 6571, read-out: MIC. As to the method: as §1, §2, §3, §4, §5, §6, §7, §8
For assay [6], the system named is Staphylococcus epidermidis. Nature of the assay: MIC agar dilution, micro-organism 14 (11047). As to conditions: Staphylococcus epidermidis 11047, read-out: MIC. As to the method: as §1, §2, §3, §4, §5, §6, §7, §8
The subject of assay [7] is Listeria monocytogenes. Nature of the assay: MIC agar dilution, micro-organism 15 (11994). As to conditions: Listeria monocytogenes 11994, read-out: MIC. As to the method: as §1, §2, §3, §4, §5, §6, §7, §8
For assay [8], the system named is Enterococcus faecium. Put plainly: MIC agar dilution, micro-organism 16 (7171). As to conditions: Enterococcus faecium 7171, read-out: MIC. As to the method:
as §1, §2, §3, §4, §5, §6, §7, §8

The subject of assay [9] is Enterococcus faecalis. Nature of the assay: MIC agar dilution, micro-organism 17 (775). As to conditions: Enterococcus faecalis 775, read-out: MIC. As to the method:
as §1, §2, §3, §4, §5, §6, §7, §8

The subject of assay [10] is Bacillus subtilis. Put plainly: MIC agar dilution, micro-organism 18 (9372). As to conditions: Bacillus subtilis 9372, read-out: MIC. As to the method: as §1, §2, §3, §4, §5, §6, §7, §8
For assay [11], the system named is Candida albicans. Put plainly: MIC agar dilution, micro-organism 19 (90028). As to conditions: Candida albicans 90028, read-out: MIC. As to the method:
as §1, §2, §3, §4, §5, §6, §7, §8

The subject of assay [12] is Candida glabrata. Nature of the assay: MIC agar dilution, micro-organism 20 (3943). As to conditions: Nakaseomyces glabratus, Candida glabrata 3943, read-out: MIC. As for the experimental part: as §1, §2, §3, §4, §5, §6, §7, §8

Converted amounts (≈) assume the structure as drawn. Where two headings read alike, the source gives them in different places.

Usually MIC stands for the smallest concentration in the dilution series that meets the test's criterion for growth inhibition. Regarding `CCCCCCCCCCCCCCO` [M0, 1-Tetradecanol, reference compound], the MIC in assay [1] (22 hrs) is greater than 880 µM; in assay [1] (48 hrs), greater than 880 µM; in assay [2] (22 hrs), greater than 880 µM; in assay [2] (48 hrs), greater than 880 µM; in assay [3] (22 h, 22 hrs), 220 µM (≈ 47.2 µg/mL); in assay [3] (48 h, 48 hrs) it was 220 µM (≈ 47.2 µg/mL). In addition, the MIC in assay [4] (22 h, 22 hrs) came out at 110 µM (≈ 23.6 µg/mL); in assay [4] (48 h, 48 hrs), 110 µM (≈ 23.6 µg/mL); in assay [5] (22 h, 22 hrs), 440 µM (≈ 94.3 µg/mL); in assay [5] (48 h, 48 hrs) it was 440 µM (≈ 94.3 µg/mL); in assay [6] (22 hrs), 110 µM (≈ 23.6 µg/mL); in assay [6] (48 hrs), 220 µM (≈ 47.2 µg/mL). The minimal inhibitory concentration (MIC) in [7] (22 hrs) was greater than 880 µM; in [7] (48 hrs), greater than 880 µM; in [8] (22 hrs), greater than 880 µM; in assay [8] (48 hrs), 220 µM (≈ 47.2 µg/mL); in assay [9] (22 hrs) it was greater than 880 µM; in [9] (48 hrs) it was 110 µM (≈ 23.6 µg/mL). Further, the MIC in assay [10] (22 hrs) is greater than 880 µM; in [10] (48 hrs), greater than 880 µM; in assay [11] (22 hrs), greater than 880 µM; in assay [11] (48 hrs) it was greater than 880 µM; in [12] (22 h, 22 hrs), greater than 880 µM; in assay [12] (48 h, 48 hrs), greater than 880 µM.
As to `CCCCCCCCCCCCCCCCCCO` [S0, 1-Octadecanol, reference compound], the MIC is greater than 880 µM in assay [1] (22 hrs); greater than 880 µM in assay [1] (48 hrs); greater than 880 µM in assay [2] (22 hrs); greater than 880 µM in [2] (48 hrs); 880 µM (≈ 238 µg/mL) in [3] (22 h, 22 hrs); 880 µM (≈ 238 µg/mL) in [3] (48 h, 48 hrs). Further, the MIC in [4] (22 h, 22 hrs) was greater than 880 µM; in assay [4] (48 h, 48 hrs) it was greater than 880 µM; in [5] (22 h, 22 hrs), greater than 880 µM; in assay [5] (48 h, 48 hrs), greater than 880 µM; in assay [6] (22 hrs), greater than 880 µM; in assay [6] (48 hrs) it was greater than 880 µM. The MIC in [7] (22 hrs), in assay [7] (48 hrs), in assay [8] (22 hrs), in assay [8] (48 hrs), in [9] (22 hrs) and in [9] (48 hrs) was greater than 880 µM in each case. In addition, the MIC in [10] (22 hrs) was greater than 880 µM; in [10] (48 hrs) it was greater than 880 µM; in assay [11] (22 hrs), greater than 880 µM; in assay [11] (48 hrs) it was greater than 880 µM; in [12] (22 h, 22 hrs), 880 µM (≈ 238 µg/mL); in assay [12] (48 h, 48 hrs) it was 880 µM (≈ 238 µg/mL).
